In one test the target is T1, human 17β-HSD 1 (Homo sapiens, UniProt P14061).
T1 construct: Full length cDNAs of several 17β-HSDs type 1 originating from different species were cloned; made in house; host or cells: E.coli BL21 DE3 Codon Plus RP
T1 sequence (P14061 1-328): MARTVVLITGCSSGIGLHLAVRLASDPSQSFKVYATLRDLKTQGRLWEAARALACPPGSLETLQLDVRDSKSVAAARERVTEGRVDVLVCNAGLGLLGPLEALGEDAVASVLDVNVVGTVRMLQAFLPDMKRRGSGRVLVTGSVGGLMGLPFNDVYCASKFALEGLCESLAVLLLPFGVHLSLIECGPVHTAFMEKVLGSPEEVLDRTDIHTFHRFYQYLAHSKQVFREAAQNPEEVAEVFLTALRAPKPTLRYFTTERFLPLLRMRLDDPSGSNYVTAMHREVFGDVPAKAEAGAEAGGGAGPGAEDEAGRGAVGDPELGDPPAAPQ
The test is described as follows: In vitro enzymatic activity, recombinant human 17β-HSD 1 (estrone reduction). In kind it is biochemical. As to conditions: pH 6.6, read-out: Observed % inhibition. The text has this:
(§1) Full length cDNAs of several 17β-HSDs type 1 originating from different species were cloned either into the pQE30 vector (human 17β-HSD 1, coding for acc. no. NP_000404) for expression as His-Tag protein or into a modified pGex-2T vector [63] (mouse 17β-HSD 1, acc. no. NP_034605; rat 17β-HSD 1, acc. no. NP_036983; marmoset 17β-HSD 1, acc. no. AAG01115; porcine 17β-HSD 1, acc. no. NP_001121944) for expression as GST-fusion proteins. The marmoset 17β-HSD 1 enzyme sequence was updated by the missing N-terminal part (AF272013) and the new porcine sequence was submitted to GenBank (NP_001121944). Human 17β-HSDs 2, 4, 5 (AKR1C3, the latter kindly provided by Dr. T. Penning) and 7 were all cloned into the modified pGEX-2T vector. For 17β-HSD 4 only the SDR-domain converting the steroids was subcloned. Plasmids were transformed into E.coli BL21 DE3 Codon Plus RP (Stratagene) and enzyme expression was induced by 0.5 mM IPTG. After 4h incubation at 37°C with continuous shaking bacteria were pelleted by centrifugation at 10.000×g. Pellets were stored until use at −20°C.
(§2) The bacteria containing recombinant enzymes were resuspended in PBS and enzymatic assays were performed in 100 mM sodium phosphate buffer at pH 6.6 for the reductive reaction and at pH 7.7 for the oxidative reaction. […] All substrates were purchased from NEN/Perkin Elmer. The cofactors NADPH (Sigma; for reductive reactions) and NAD^+ (Serva, for oxidative reactions) were used at final concentrations of 0.5 mg/ml. […] The incubation at 37°C was stopped with 0.21 M ascorbic acid in methanol∶acetic acid 99∶1 (v∶v) after the time needed to convert approximately 30% of the substrate in a control assay with 1% DMSO, without inhibitor candidates. […] The solvent used was acetonitrile∶water (43∶57, v∶v) at a flow rate of 1 ml/min. Radioactivity was detected by online-scintillation counting (Berthold LB506D) after mixing with ReadyFlowIII (Beckman). Conversion was calculated from integration of substrate and product peaks. […] All assays were run in duplicates of two independent experiments and mean values are reported. The IC50 values were determined by the One Ligand Binding model of SigmaPlot kinetics module.

For another test, the target named is T2, porcine 17β-HSD 1 (Sus scrofa, UniProt B2X0A4).
T2 sequence (B2X0A4 1-321): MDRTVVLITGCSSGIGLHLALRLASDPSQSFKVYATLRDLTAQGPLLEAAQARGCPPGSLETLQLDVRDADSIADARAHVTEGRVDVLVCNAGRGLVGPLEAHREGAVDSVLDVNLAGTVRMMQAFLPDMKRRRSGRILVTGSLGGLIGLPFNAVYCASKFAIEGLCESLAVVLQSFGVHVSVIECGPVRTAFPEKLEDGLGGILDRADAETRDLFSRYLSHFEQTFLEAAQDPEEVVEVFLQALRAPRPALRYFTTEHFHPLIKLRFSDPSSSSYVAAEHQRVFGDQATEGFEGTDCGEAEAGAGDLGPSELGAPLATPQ
The test is described as follows: In vitro enzymatic activity, recombinant porcine 17β-HSD 1. In kind it is biochemical, pig. As to conditions: read-out: Observed % inhibition.
Excerpt: as §1, §2

The target in a further test is T3, mouse 17β-HSD 1 (Mus musculus, UniProt P51656).
T3 construct: Full length cDNAs of several 17β-HSDs type 1 originating from different species were cloned; made in house; host or cells: E.coli BL21 DE3 Codon Plus RP
T3 sequence (P51656 1-344): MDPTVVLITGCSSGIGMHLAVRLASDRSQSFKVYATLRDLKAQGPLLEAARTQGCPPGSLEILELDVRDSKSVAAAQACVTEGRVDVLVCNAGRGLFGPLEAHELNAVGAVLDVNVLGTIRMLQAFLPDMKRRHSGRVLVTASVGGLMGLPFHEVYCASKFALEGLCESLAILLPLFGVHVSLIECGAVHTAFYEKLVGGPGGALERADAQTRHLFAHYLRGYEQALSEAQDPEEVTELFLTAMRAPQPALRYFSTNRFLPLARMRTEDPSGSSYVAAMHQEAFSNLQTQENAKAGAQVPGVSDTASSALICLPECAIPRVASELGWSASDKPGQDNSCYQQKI
The experiment in a line: In vitro enzymatic activity, recombinant mouse 17β-HSD 1. In kind it is biochemical. As to conditions: 2 µM compound, 15 nM 3H-estrone, read-out: Observed % inhibition.
Excerpt: as §1, §2

For the next test, the target named is T4, marmoset 17β-HSD 1 (Callithrix jacchus, UniProt Q9GME2).
T4 sequence (Q9GME2 1-314): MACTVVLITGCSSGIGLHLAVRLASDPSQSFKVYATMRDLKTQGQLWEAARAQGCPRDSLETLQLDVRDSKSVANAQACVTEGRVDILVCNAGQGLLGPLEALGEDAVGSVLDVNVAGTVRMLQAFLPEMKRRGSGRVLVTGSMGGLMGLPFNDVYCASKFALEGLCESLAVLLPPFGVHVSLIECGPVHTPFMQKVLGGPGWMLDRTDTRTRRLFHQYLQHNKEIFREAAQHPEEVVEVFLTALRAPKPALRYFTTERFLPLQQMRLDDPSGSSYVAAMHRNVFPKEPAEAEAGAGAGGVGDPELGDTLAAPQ
The test is described as follows: In vitro enzymatic activity, recombinant marmoset 17β-HSD 1. As to conditions: marmoset 17β-HSD 1; 2 µM compound; 15 nM 3H-estrone; read-out: Observed % inhibition. The format is biochemical.
Excerpt: as §1, §2

For another test, the target named is T5, rat 17β-HSD 1 (Rattus norvegicus, UniProt P51657).
T5 construct: Full length cDNAs of several 17β-HSDs type 1 originating from different species were cloned; made in house; host or cells: E.coli BL21 DE3 Codon Plus RP
T5 sequence (P51657 1-344): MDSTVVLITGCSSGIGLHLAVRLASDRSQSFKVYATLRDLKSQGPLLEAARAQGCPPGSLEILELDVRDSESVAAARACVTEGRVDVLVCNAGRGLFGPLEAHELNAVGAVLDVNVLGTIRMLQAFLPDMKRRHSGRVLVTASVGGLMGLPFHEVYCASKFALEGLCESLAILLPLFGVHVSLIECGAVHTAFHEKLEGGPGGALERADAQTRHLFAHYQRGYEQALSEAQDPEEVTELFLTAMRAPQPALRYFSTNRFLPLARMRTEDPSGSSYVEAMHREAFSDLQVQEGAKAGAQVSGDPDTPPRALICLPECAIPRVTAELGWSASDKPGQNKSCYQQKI
The experiment in a line: In vitro enzymatic activity, recombinant rat 17β-HSD 1. In kind it is biochemical. As to conditions: 2 µM compound, 15 nM 3H-estrone, read-out: Observed % inhibition.
Excerpt: as §1, §2

Test [1] concerns 17β-HSD 1 orthologs of five species. The experiment in a line: In vitro enzymatic activity, 17β-HSD 1 orthologs of five species taken together. As to conditions: average over the 17β-HSD 1 orthologs of the species; 2 µM compound. The format is biochemical, human, marmoset, mouse, pig, rat.

For the molecule `C[C@]12CC[C@@H]3c4ccc(O)cc4CC[C@H]3[C@@H]1CCC2=O` [Compound 6, estrone, reference compound], the inhibition at 2 µM on human 17β-HSD 1 is 101%; at porcine 17β-HSD 1, 86.3%; at mouse 17β-HSD 1 it was 101%; at marmoset 17β-HSD 1, 110%; on rat 17β-HSD 1 it was 79.1%. The “Observed % inhibition, average” value in test [1] stood at 95.4%.

For the origin of these results see article PMC2882332, “Species Used for Drug Testing Reveal Different Inhibition Susceptibility for 17beta-Hydroxysteroid Dehydrogenase Type 1” (PLoS ONE, 2010).
